Assay results: ChEMBL document CHEMBL3616396, “Integrated kinetic studies and computational analysis on naphthyl chalcones as mushroom tyrosinase inhibitors” (Bioorg Med Chem Lett, 2015)
Activity calls are given as the source filed them. The rule behind the calls is not given here.

How the values were obtained:
Tyrosinase [1] = target: T1, Tyrosinase (Agaricus bisporus, UniProt O42713)
T1 sequence (O42713 whole entry): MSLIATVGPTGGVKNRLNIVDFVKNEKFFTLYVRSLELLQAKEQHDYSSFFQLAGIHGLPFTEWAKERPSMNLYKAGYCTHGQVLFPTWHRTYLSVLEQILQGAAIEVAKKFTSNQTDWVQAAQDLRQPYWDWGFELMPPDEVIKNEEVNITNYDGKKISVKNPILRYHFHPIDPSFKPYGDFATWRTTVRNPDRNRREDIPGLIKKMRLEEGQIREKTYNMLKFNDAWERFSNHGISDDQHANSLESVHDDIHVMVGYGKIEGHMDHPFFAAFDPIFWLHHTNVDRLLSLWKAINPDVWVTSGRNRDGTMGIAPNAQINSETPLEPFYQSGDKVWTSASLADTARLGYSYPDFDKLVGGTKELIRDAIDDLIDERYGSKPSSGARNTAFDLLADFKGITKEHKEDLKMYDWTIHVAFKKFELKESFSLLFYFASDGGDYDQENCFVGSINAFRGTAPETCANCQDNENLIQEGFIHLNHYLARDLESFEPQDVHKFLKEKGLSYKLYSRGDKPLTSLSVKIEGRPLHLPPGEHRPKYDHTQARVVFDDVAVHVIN
Description: Inhibition of mushroom tyrosinase assessed as reduction in L-DOPA oxidase activity using L-DOPA substrate at 5 uM by Dixon plot

Tyrosinase [2] = target: T1, Tyrosinase; remark: listed apart in the source
Description: Inhibition of mushroom tyrosinase assessed as reduction in L-DOPA oxidase activity using L-DOPA substrate

[3] = target: T2, Tyrosinase (Agaricus bisporus) (UniProt O42713); experiment: Competitive inhibition of mushroom tyrosinase assessed as reduction in L-DOPA oxidase activity at 0.15 mM to 0.6 mM using L-DOPA substrate by Lineweaver-Burk plot
T2 sequence (whole entry): T1 sequence (O42713 whole entry)

For `COc1ccc(/C=C/C(=N\O)c2cc3ccccc3cc2O)cc1OC`, the Ki (Tyrosinase [1]) was 22.9 µM, the IC50 (Tyrosinase [2]) was 42.3 µM and the inhibition [3] was “Active”.

`O/N=C(\C=C\c1ccncc1)c1cc2ccccc2cc1O` was tested, and the Ki (Tyrosinase [1]) was 7.82 µM, the IC50 (Tyrosinase [2]) was 19.5 µM and the inhibition [3] was “Active”.

`COc1ccc(/C=C/C(=N\O)c2cc3ccccc3cc2O)c(OC)c1` was tested, and the Ki (Tyrosinase [1]) was 10.6 µM, the IC50 (Tyrosinase [2]) was 23 µM and the inhibition [3] was “Active”.

`O/N=C(\C=C\c1ccccn1)c1cc2ccccc2cc1O` was tested, and the Ki (Tyrosinase [1]) was 11.1 µM, the IC50 (Tyrosinase [2]) was 20.2 µM and the inhibition [3] was “Active”.

With `COc1cc(/C=C/C(=N\O)c2cc3ccccc3cc2O)cc(OC)c1` the Ki (Tyrosinase [1]) was 28.6 µM, the IC50 (Tyrosinase [2]) was 52.9 µM and the inhibition [3] was “Active”.

With `COc1ccc(OC)c(/C=C/C(=N\O)c2cc3ccccc3cc2O)c1` the Ki (Tyrosinase [1]) was 9.4 µM, the IC50 (Tyrosinase [2]) was 21.9 µM and the inhibition [3] was “Active”.

`O/N=C(\C=C\c1cccnc1)c1cc2ccccc2cc1O` was tested, and the Ki (Tyrosinase [1]) was 6.46 µM, the IC50 (Tyrosinase [2]) was 12.2 µM and the inhibition [3] was “Active”.
